Reference: US10481149B2
Read-outs that look alike come from different tables or passages of the source.

Tests used:
BSEP [1] = target: T1, BSEP (Rattus norvegicus, UniProt O70127); assay: Inhibition of BSEP activity (transport of glycocholate) in rat hepatocytes
T1 sequence (O70127 1-1321): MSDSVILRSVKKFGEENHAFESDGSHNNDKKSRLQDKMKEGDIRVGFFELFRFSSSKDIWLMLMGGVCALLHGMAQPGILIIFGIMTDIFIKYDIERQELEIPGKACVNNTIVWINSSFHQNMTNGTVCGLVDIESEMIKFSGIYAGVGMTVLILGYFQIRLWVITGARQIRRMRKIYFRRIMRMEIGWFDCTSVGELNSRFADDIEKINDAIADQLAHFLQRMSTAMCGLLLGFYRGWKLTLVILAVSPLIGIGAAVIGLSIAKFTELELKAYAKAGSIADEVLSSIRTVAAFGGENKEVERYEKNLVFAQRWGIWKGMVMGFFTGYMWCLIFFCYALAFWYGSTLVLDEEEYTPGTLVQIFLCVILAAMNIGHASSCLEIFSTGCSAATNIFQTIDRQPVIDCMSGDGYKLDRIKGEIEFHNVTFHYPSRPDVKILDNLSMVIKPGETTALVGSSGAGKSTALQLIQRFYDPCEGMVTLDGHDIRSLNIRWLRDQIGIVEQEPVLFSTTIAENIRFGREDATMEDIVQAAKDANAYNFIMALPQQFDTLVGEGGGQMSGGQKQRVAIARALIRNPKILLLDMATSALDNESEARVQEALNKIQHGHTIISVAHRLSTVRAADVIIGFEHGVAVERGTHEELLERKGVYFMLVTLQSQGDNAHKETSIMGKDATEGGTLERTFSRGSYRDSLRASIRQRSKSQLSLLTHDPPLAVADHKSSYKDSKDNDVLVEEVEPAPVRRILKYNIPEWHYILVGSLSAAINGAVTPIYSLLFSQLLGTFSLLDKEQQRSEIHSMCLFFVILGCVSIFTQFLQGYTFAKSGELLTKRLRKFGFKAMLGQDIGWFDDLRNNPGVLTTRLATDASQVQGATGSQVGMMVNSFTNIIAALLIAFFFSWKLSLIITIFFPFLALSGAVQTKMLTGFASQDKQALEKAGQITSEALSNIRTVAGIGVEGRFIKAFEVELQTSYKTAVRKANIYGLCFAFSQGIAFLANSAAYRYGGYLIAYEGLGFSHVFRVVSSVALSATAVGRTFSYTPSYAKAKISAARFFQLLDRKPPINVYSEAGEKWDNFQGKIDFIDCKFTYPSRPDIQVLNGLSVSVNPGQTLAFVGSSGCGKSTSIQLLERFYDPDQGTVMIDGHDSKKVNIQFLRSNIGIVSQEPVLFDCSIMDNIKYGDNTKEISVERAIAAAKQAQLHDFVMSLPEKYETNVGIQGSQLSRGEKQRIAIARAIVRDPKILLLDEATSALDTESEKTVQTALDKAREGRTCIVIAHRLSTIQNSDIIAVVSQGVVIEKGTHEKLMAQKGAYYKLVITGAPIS

BSEP [2] = target: T2, BSEP (Mus musculus, UniProt Q9QY30); assay: Inhibition of BSEP activity (transport of taurocholate) in mouse hepatocytes
T2 sequence (Q9QY30 1-1321): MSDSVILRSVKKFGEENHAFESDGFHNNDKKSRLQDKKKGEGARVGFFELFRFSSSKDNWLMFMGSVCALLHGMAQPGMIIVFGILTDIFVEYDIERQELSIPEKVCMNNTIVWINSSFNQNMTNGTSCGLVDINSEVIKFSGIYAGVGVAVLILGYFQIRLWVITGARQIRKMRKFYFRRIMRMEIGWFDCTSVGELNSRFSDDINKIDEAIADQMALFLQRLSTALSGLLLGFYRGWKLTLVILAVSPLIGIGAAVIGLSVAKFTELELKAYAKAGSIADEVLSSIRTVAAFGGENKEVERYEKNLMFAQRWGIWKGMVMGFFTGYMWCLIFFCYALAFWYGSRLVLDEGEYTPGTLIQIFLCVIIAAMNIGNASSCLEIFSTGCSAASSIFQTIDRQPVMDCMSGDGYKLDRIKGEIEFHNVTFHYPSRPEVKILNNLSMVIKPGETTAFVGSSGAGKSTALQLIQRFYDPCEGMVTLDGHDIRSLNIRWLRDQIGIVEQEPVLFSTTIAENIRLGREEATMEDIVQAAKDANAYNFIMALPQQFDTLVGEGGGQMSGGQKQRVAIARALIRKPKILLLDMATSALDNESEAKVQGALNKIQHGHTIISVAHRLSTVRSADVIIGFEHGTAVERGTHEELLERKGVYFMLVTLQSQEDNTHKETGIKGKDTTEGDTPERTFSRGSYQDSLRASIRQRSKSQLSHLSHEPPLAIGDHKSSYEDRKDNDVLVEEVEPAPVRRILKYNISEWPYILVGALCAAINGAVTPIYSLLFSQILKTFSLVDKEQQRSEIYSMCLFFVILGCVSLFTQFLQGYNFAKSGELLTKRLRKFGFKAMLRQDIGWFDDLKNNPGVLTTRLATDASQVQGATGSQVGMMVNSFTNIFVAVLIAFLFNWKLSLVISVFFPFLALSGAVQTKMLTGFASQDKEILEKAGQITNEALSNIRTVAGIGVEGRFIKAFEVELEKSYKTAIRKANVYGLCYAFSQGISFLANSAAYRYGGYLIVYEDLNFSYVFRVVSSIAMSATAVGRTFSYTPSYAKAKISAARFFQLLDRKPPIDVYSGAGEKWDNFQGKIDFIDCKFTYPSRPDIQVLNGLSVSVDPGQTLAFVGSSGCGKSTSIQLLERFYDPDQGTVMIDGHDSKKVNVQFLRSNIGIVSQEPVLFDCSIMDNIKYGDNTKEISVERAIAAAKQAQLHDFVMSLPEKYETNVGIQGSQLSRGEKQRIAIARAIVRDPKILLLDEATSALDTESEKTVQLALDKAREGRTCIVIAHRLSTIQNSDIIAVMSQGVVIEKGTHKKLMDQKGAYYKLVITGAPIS

BSEP [3] = target: BSEP (Macaca fascicularis, UniProt D2CFL3); assay: in vitro; conditions: monkey, hepatocytes in suspension, probe glycocholate
Chain of BSEP (Macaca fascicularis, UniProt D2CFL3) (D2CFL3 1-1323): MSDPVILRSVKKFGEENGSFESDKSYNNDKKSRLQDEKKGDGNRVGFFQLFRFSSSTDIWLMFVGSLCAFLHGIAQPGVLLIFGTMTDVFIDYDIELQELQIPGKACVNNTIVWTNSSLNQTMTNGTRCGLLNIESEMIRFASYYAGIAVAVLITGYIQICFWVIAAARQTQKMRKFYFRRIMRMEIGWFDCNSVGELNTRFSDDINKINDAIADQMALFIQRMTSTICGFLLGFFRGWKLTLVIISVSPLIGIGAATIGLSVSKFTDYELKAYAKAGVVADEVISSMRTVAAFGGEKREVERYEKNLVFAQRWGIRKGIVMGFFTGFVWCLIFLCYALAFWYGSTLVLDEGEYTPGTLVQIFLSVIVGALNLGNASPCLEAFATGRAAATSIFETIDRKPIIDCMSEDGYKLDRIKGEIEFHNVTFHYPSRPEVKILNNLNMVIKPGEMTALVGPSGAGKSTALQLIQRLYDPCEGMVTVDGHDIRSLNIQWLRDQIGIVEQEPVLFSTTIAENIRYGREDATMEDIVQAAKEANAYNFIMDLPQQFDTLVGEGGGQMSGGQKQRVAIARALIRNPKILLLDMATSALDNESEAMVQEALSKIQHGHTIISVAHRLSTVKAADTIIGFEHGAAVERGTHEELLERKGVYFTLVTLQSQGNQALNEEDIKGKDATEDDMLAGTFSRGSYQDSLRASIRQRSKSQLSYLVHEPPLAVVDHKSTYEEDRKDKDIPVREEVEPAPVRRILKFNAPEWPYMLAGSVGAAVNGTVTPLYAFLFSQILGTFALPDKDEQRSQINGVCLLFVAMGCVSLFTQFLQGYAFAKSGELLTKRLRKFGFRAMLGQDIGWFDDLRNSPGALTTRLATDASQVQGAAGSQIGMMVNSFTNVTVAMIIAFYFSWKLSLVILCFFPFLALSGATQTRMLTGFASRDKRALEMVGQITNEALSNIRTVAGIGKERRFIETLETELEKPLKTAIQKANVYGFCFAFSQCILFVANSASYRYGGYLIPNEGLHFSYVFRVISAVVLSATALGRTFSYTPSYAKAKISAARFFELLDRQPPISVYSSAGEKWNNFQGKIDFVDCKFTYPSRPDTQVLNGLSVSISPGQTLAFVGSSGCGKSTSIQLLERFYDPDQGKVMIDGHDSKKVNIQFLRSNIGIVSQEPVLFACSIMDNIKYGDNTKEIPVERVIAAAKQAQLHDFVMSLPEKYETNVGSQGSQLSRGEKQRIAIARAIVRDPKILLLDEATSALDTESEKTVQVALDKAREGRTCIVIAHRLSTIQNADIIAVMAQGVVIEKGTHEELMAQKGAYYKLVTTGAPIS

BSEP [4] = target: BSEP (Homo sapiens, UniProt O95342); assay: in vitro
Chain of BSEP (Homo sapiens, UniProt O95342) (O95342 whole entry): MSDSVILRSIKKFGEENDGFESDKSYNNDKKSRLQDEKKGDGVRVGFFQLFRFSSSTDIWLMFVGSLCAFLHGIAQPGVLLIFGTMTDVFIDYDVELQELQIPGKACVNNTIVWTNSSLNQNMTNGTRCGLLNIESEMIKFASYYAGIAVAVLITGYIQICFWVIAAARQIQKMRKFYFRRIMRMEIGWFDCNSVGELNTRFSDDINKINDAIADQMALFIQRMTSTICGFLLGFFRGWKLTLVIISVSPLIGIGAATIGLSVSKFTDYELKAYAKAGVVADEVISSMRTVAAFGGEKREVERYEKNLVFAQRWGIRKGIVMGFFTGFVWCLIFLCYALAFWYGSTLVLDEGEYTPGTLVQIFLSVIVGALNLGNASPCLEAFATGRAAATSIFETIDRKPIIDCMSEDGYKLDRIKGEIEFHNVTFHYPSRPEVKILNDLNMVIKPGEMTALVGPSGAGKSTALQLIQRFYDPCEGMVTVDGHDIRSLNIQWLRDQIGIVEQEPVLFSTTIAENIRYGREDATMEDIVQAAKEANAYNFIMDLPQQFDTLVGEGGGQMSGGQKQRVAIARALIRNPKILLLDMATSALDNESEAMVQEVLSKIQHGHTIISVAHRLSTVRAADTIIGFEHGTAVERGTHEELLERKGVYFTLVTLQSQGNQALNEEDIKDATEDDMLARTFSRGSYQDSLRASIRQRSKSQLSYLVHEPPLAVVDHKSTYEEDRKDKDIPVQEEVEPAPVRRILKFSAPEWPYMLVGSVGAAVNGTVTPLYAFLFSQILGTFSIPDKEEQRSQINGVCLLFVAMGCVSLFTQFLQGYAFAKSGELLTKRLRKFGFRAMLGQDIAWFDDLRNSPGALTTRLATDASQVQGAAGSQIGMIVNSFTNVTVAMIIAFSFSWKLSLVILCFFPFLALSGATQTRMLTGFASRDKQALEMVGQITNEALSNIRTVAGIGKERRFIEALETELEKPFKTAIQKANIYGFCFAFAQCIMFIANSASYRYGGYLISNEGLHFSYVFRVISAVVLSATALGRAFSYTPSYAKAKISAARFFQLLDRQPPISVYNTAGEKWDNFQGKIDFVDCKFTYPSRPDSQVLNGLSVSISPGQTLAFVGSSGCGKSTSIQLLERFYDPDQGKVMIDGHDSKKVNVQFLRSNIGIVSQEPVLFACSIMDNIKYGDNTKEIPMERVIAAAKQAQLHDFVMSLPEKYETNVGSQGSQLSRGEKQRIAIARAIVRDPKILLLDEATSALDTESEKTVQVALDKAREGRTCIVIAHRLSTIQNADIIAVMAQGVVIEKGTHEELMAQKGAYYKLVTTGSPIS

[5] = hepatocytes in suspension, probe glycocholate
[6] = hepatocytes in suspension, probe taurocholate

SMILES | inhibition at 1 h, 1 μM (BSEP [1]; [5]) | inhibition at 1 h, 10 μM (BSEP [1]; [5]) | inhibition at 1 h, 1 μM (BSEP [2]; [6]) | inhibition at 1 h, 10 μM (BSEP [2]; [6]) | inhibition at 1 h, 1 μM (BSEP [3]) | inhibition at 1 h, 10 μM (BSEP [3]) | inhibition at 1 h, 1 μM (BSEP [4]; [5]) | inhibition at 1 h, 10 μM (BSEP [4]; [5]) | inhibition at 1 h, 1 μM (BSEP [1]) | inhibition at 1 h, 10 μM (BSEP [1]) | inhibition at 1 h, 1 μM (BSEP [2]) | inhibition at 1 h, 10 μM (BSEP [2]) | inhibition at 1 h, 1 μM (BSEP [4]) | inhibition at 1 h, 10 μM (BSEP [4])
COC(=O)N[C@H](C(=O)N[C@@H](Cc1ccccc1)[C@@H](O)CN(Cc1ccc(-c2ccccn2)cc1)NC(=O)[C@@H](NC(=O)OC)C(C)(C)C)C(C)(C)C [Atazanavir, atazanavir] | > 50% | > 50% | < 50% | < 50% | < 50% | > 50% | < 50% | > 50% | – | – | – | – | – | –
C[C@@H](Oc1cc(-c2cnn(C3CCNCC3)c2)cnc1N)c1c(Cl)ccc(F)c1Cl [Crizotinib, crizotinib] | < 50% | > 50% | < 50% | < 50% | < 50% | < 50% | < 50% | > 50% | – | – | – | – | – | –
OC(Cn1cncn1)(Cn1cncn1)c1ccc(F)cc1F [Fluconazole, fluconazole] | < 50% | < 50% | < 50% | < 50% | < 50% | < 50% | < 50% | < 50% | – | – | – | – | – | –
CC(=O)N1CCN(c2ccc(OCC3COC(Cn4ccnc4)(c4ccc(Cl)cc4Cl)O3)cc2)CC1 (stereo not shown) [Ketoconazole, ketoconazole] | < 50% | > 50% | < 50% | < 50% | < 50% | > 50% | < 50% | < 50% | – | – | – | – | – | –
Cc1c(O)cccc1C(=O)N[C@@H](CSc1ccccc1)[C@H](O)CN1C[C@H]2CCCC[C@H]2C[C@H]1C(=O)NC(C)(C)C [Nelfinavir, nelfinavir] | < 50% | > 50% | < 50% | < 50% | < 50% | > 50% | < 50% | > 50% | – | – | – | – | – | –
CC(C)NCC(O)COc1cccc2ccccc12 (stereo not shown) [Propranolol, propranolol] | < 50% | < 50% | < 50% | < 50% | < 50% | < 50% | < 50% | < 50% | – | – | – | – | – | –
O=c1c(O)c(-c2ccc(O)c(O)c2)oc2cc(O)cc(O)c12 [Quercetin, quercetin] | < 50% | < 50% | < 50% | < 50% | < 50% | < 50% | < 50% | < 50% | – | – | – | – | – | –
C=C[C@H]1C[N@@]2CC[C@H]1C[C@@H]2[C@@H](O)c1ccnc2ccc(OC)cc12 [Quinidine, quinidine] | < 50% | < 50% | < 50% | < 50% | < 50% | < 50% | < 50% | < 50% | – | – | – | – | – | –
S=P(N1CC1)(N1CC1)N1CC1 [Thiotepa, thiotepa] | – | – | – | – | < 50% | < 50% | – | – | < 50% | < 50% | < 50% | < 50% | < 50% | < 50%
Cc1c(C)c2c(c(C)c1O)CCC(C)(COc1ccc(CC3SC(=O)NC3=O)cc1)O2 (stereo not shown) [Troglitazone, troglitazone] | > 50% | > 50% | < 50% | < 50% | > 50% | > 50% | > 50% | > 50% | – | – | – | – | – | –
CC[C@]1(O)C[C@@H]2CN(CCc3c([nH]c4ccccc34)[C@@](C(=O)OC)(c3cc4c(cc3OC)N(C)[C@H]3[C@@](O)(C(=O)OC)[C@H](OC(C)=O)[C@]5(CC)C=CCN6CC[C@]43[C@@H]65)C2)C1 [Vinblastine, vinblastine] | < 50% | > 50% | < 50% | < 50% | < 50% | < 50% | < 50% | > 50% | – | – | – | – | – | –
